Laboratory results published in patent EP0943339A2, “Method of preventing allograft rejection” (priority 1998, dated 1999).

System: acute allograft rejection
Test: murine cardiac ear pinna model of acute allograft rejection (non-vascularized cardiac tissue transplantation)
Type: in vivo
Details: for Graft Survival Mean ± Std Dev: monotherapy, day 0 to 17
Text: In Vivo Murine Cardiac Ear Pinnae Model of Transplatation
• Methods: A rapid, facile 2-week murine bioassay of non-vascularized cardiac tissue transplantation,t he murine cardiac ear pinna model of acute allograft rejection, was used to evaluate the dose-response relationship of immunosuppressive drugs on allograft rejection. In this model, donor BALB/C (N2^d) neonatal hearts are transplanted into recipient C3H/HeN (H2^k) ear pinna pouches without vacular anastomoses. […] All compounds are given on day 0 to 17 COMPOUND P [(+)-2-[3,4-dihydro(3S,4R)-4-hydroxy-3-(4-phenyl-phenylmethyl)-7-(2H, 1-benzopyran)]cyclopentane carboxylic acid] was given orally in 0.5% Methylcellulose. […] Grafts were assessed by visual examination for contraction on alternate days (from 6 to 18) and graft survival was defined as the post-transplant day on which contractions cease. Efficacy data from day 6 to 18 is presented as mean survival days (±SD) and was analyzed by Log Rank Analysis. Graft survival values were deterined at day 18. […] The studies were performed at Stanford Medical Ceter in a collaborative grant with Randall Morris, MD. […]

C=CC[C@@H]1/C=C(\C)C[C@H](C)C[C@H](OC)[C@H]2O[C@@](O)(C(=O)C(=O)N3CCCC[C@H]3C(=O)O[C@H](/C(C)=C/[C@@H]3CC[C@@H](O)[C@H](OC)C3)[C@H](C)[C@@H](O)CC1=O)[C@H](C)C[C@@H]2OC (relative stereo) [FK506, [3S-[3R*[E(1S*,3S*,4S*)], 4S*, 5R*, 8S*, 9E, 12R*, 14R*, 15S*, 16R*, 18S*, 19S*, 26aR*]]-5,6,8,11,12,13,14,15,16,17,18,19,24,25,26,26a-Hexadeachydro-5,19-dihydroxy-3-[2-(4-hydroxy-3-[2-(4-hydroxy-3-methoxycyclohexyl)-1-methyl-ethenyl]-14,16-dimethoxy-4,10,12,18-tetramethyl-8-(2-propenyl)-15,19-epoxy-3H-pyrido[2,1-c][1,4]oxaazacyclotricosine-1,7,20,21(4H,23H)-tetrone]
Graft Survival Mean ± Std Dev (FK506 0.2 mg/kg/d intraperitoneal, survival assessed to day 18): 11.6 ± 1.3 days | Graft Survival Mean ± Std Dev (FK506 0.4 mg/kg/d intraperitoneal, survival assessed to day 18): 12.4 ± 0.9 days | Graft Survival Mean ± Std Dev (FK506 0.6 mg/kg/d intraperitoneal, grafts surviving at day 18 censored): >16.9 ± 1.8 days | Graft Survival Mean ± Std Dev (FK506 0.8 mg/kg/d intraperitoneal, grafts surviving at day 18 censored): >17.8 ± 0.6 days

O=C(O)C1CCCC1c1ccc2c(c1)OC[C@H](Cc1ccc(-c3ccccc3)cc1)[C@H]2O (single isomer, unassigned; (+)) [COMPOUND P]
efficacy as a single agent in acute rejection (highest dose, 300 mg/kg/d): significant (p<0.01) | Graft Survival Mean ± Std Dev (COMPOUND P 30 mg/kg/d orally, survival assessed to day 18): 11.0 ± 1.1 days | Graft Survival Mean ± Std Dev (COMPOUND P 100 mg/kg/d orally, survival assessed to day 18): 10.3 ± 0.7 days | Graft Survival Mean ± Std Dev (COMPOUND P 200 mg/kg/d orally, survival assessed to day 18): 10.3 ± 0.7 days | Graft Survival Mean ± Std Dev (COMPOUND P 300 mg/kg/d orally, survival assessed to day 18): 11.8 ± 1.1 days

COc1c(C)c2c(c(O)c1C/C=C(\C)CCC(=O)O)C(=O)OC2 [MPA]
Graft Survival Mean ± Std Dev (MPA 100 mg/kg/d, survival assessed to day 18): 13.6 ± 1.9 days | Graft Survival Mean ± Std Dev (MPA 150 mg/kg/d, survival assessed to day 18): 16.6 ± 1.9 days
